In US20120291148A1, “TRANSGENIC PLANTS WITH ENHANCED CHARACTERISTICS” (Miami University, priority 2007, published 2012):
Where two headings read alike, the source gives them in different places.

How the values were obtained:
AtETHE1 expression = assay: RT-PCR of AtETHE1 mRNA in hydroponic plants under abiotic stress (Example 4); assay type: in vivo, Arabidopsis Columbia; details: 10 uM ABA 3 hours; 150 mM NaCl 12 hours (roots); 300 mM Mannitol 24 hours
Procedure: Stress studies were performed on Wild-type Arabidopsis Columbia grown hydroponically. Seeds were germinated on Rockwool (GrodanHP, Agro Dynamics Inc., East Brunswick, N.J., USA) suspended above Hoagland's solution and grown in a growth chamber maintained at 23° C. and 16 hour light, 8 hour dark cycles. For the plants stressed with abscisic acid (ABA), seedlings were grown hydroponically for 7 days and then stressed for 3 hours with 10 uM ABA. Plants were grown hydroponically for 18 days for stresses with NaCl and Mannitol. Plants were either stressed with 150 mM NaCl for 12 hours or stressed for 24 hours with 300 mM Mannitol. Plant material, roots only for NaCl stress, was immediately ground in liquid N2 and stored in the −80° C. until needed for RNA isolation.
AtETHE1 RNA levels were determined using RT-PCR on total RNA isolated from either whole plants (ABA, Mannitol treated) or from the roots (NaCl treated). […] ACT8 was used as a control.

[1] = system: AtETHE1 transcript levels; assay: RT-PCR of AtETHE1 transcript levels under abiotic stress (Example 5); assay type: in vivo, Arabidopsis Columbia; details: 10 μM ABA 3 hours; 150 mM NaCl or 300 mM Mannitol 24 hours
Procedure: Stress studies were performed on wild-type Arabidopsis Columbia plants grown hydroponically. Seeds were germinated on Rockwool (GrodanHP, Agro Dynamics Inc., East Brunswick, N.J., USA) suspended above Hoagland's solution (Cowgilland & Milazzo, (1989) The Culturing and Testing of Two Species of Duckweed. In W J Adams, G A Chapman, eds, Aquatic Toxicology and Hazard Assessment Vol 12. American Society for Testing and Materials, Philadelphia, Pa., pp 379-391) and grown in a growth chamber maintained at 23° C. with 16 hour light, 8 hour dark cycles. Plants stressed with abscisic acid (ABA), were grown hydroponically for 7 days and then stressed for 3 hours with 10 μM ABA. Plants were grown hydroponically for 18 days prior to treatment with either 150 mM NaCl or 300 mM Mannitol for 24 hours.
AtETHE1 RNA levels were determined by RT-PCR on total RNA (1 μg) isolated from cotyledon, root, stem, leaf, silique, and bud, and seedlings subjected to abiotic stresses. AtETHE1 cDNA was synthesized using a Thermoscript RT-PCR kit, followed by 25 cycles of PCR using the primer pair 2-3-5′ and 2-3-2. ACT8 was used as a control (An, et al., (1996) Plant J 10: 107-121).

plants = assay: Preliminary studies of methylmalonate toxicity in plants; assay type: in vivo
[2] = system: Arabidopsis seedlings (root growth); assay: Seedling growth on MS plates with exogenous metabolites; assay type: in vivo, Arabidopsis thaliana; details: for sensitivity of AtETHE256-OE plants compared with wild-type plants: 0 mM to 2 mM metabolite on MS plates; for inhibition at 1500 µM: Arabidopsis thaliana, 168 h, 1.5 mM valine, 7 days of growth
Procedure: Studies in Arabidopsis thaliana Heyhn were performed on the Wassilewskija (WS) ecotype. Seeds were vernalized at 4° C. for 48 hours prior to being placed in a growth chamber. For measurement of toxicity and germination rates, seeds were surfaced sterilized with 70% ethanol for 30 seconds followed by 10% bleach for 30 minutes, rinsed three times with sterile deionized water and plated on half strength Murashige and Skoog (MS) plates solidified with 0.6% Gelrite and supplemented with 1.5% sucrose, pH 6.0. Plates were vernalized for four days at 4° C. and then placed in a controlled growth chamber at 23° C. on a 16:8 light/dark cycle.
Wild-type Arabidopsis (Ws), AtETHE1256-OE, and AtETHE1294-OE seeds were sown onto half-strength MS plates with 0 mM to 2 mM valine, propionate, ethylmalonic acid, butyric acid, or crotonic acid (all purchased from Sigma). Neutralized, filter-sterilized metabolites were added after the medium was autoclaved. Once toxicity levels for wild-type seeds were obtained, wild-type, AtETHE1256-OE, and AtETHE1294-OE seeds were plated together on the same plates. Root lengths and cotyledon growth from 100 plants per stress were measured and compared after 7 days of growth.

AtETHE1 [3] = target: T1, AtETHE1 (Arabidopsis thaliana, UniProt Q9C8L4, S50M); assay: Inhibition of AtETHE1 p-nitrophenyl acetate hydrolysis by metal chelator; assay type: biochemical; details: presence of metal chelator
T1 construct: made in house
Procedure: (§1) Enzymatic assays were conducted at 25° C. in 10 mM MOPS, pH 7.2, on a Cary IE UV-Vis spectrophotometer. A series of thioesters of glutathione were synthesized as previously described (L. Uotila, Meth. Enzymol. 77 (1981) 424-430), and all other substrates were purchased commercially. The hydrolysis of S-D-lactoylglutathione (Sigma), S-D-acetylglutathione, S-D-acetoacetylglutathione, S-D-formylglutathione, S-D-glyocosylgutathione or S-D-pyruvylglutathione was monitored at 240 nm. S-D-mandeloylglutathione hydrolysis was monitored at 263 nm (L. Uotila, Meth. Enzymol. 77 (1981) 424-430). Hydrolysis of p-nitrophenyl phosphate (Sigma), p-nitrophenyl sulfate (Sigma), and p-nitrophenyl acetate (Sigma) was monitored at 400 nm (see R. A. Anderson, et al., Proc. Natl. Acad. Sci. 72 (1975) 2989-2993; J. J. Brandt, et al., Anal. Biochem. 272 (1999) 94-99; J. M. Armstrong, et al., J. Biol. Chem. 241 (1966) 5137-5149). The hydrolysis of L-alanine-p-nitroanilide (Sigma) was measured at 404 nm (J. J. Brandt, et al., Anal. Biochem. 272 (1999) 94-99). Ala-ala-ala-p-nitroanilide (Sigma) and y-L-Glu-p-nitroanalide (Sigma) hydrolysis was monitored at 410 nm. Hydrolysis of benzoylglycyl-L-phenylalanine was monitored at 254 nm (J. F. Sabastian, et al., Can. J. Biochem. 56 (1978) 329-333). […]

AtETHE1 [4] = target: T1, AtETHE1; assay: Steady-state kinetic test of candidate substrates with AtETHE1; assay type: biochemical; details: steady-state kinetic studies after screening hit
Procedure: as §1

[5] = recombinant rat carbonic anhydrase III, G. Kim et al. 2000; cited from earlier work
[6] = Steady-state hydrolysis of p-nitrophenyl acetate by purified AtETHE1; assay type: biochemical, Arabidopsis thaliana; details: substrate p-nitrophenyl acetate; 25° C., 10 mM MOPS pH 7.2
Procedure: as §1

[7] = Thioesterase activity of AtETHE1 with SLG and other glutathione thioesters; assay type: biochemical, Arabidopsis thaliana
Procedure: as §1

## CC1=CC(=O)CC(C)(C)[C@@]1(O)/C=C/C(C)=C\C(=O)O [ABA, abscisic acid]
AtETHE1 expression
  fold increase of AtETHE1 expression versus control: 1.8 fold
[1]
  increase in AtETHE1 transcript levels: approximately two fold increases

## [Cl-].[Na+] [NaCl]
AtETHE1 expression
  fold increase of AtETHE1 expression versus control: 2.1 fold
[1]
  increase in AtETHE1 transcript levels: approximately two fold increases

## CC(C(=O)O)C(=O)O [methylmalonate]
plants
  toxicity in plants: toxic in plants

## C/C=C/C(=O)O [crotonic acid]
[2]
  sensitivity of AtETHE256-OE plants compared with wild-type plants: same sensitivity

## c1cnc2c(c1)ccc1cccnc12 [1,10-o-phenanthroline]
AtETHE1 [3]
  effect on AtETHE1 activity towards p-nitrophenyl acetate: inhibited

## Ala-ala-ala-p-nitroanilide [Ala-Ala-Ala-pNA]
AtETHE1 [4]
  substrate for AtETHE1: not to be substrates

## N[C@@H](CCC(=O)Nc1ccc([N+](=O)[O-])cc1)C(=O)O [Glu-pNA, y-L-Glu-p-nitroanalide]
AtETHE1 [4]
  substrate for AtETHE1: not to be substrates

## CCC(=O)O [propionate]
[2]
  sensitivity of AtETHE256-OE plants compared with wild-type plants: same sensitivity

## OC[C@@H](O)[C@@H](O)[C@H](O)[C@H](O)CO [mannitol]
AtETHE1 expression
  fold increase of AtETHE1 expression versus control: 2.6 fold
[1]
  increase in AtETHE1 transcript levels: approximately 2.5 fold

## CCCC(=O)O [butyric acid]
[2]
  sensitivity of AtETHE256-OE plants compared with wild-type plants: same sensitivity

## CC(C)[C@H](N)C(=O)O [valine]
[2]; AtETHE1256-OE plants, read-out: inhibition of growth
  inhibition at 1500 µM: ~40%
[2]; wild-type plants, read-out: inhibition of root growth
  inhibition at 1500 µM: ~80%

## CCC(C(=O)O)C(=O)O [ethylmalonic acid]
[2]
  sensitivity of AtETHE256-OE plants compared with wild-type plants: same sensitivity

B1: rat carbonic anhydrase III: recombinant rat carbonic anhydrase III, literature comparator for esterase activity (protein, UniProt P14141 2-260, looked up)
Carbonic anhydrase 3: AKEWGYASHNGPEHWHELYPIAKGDNQSPIELHTKDIRHDPSLQPWSVSYDPGSAKTILNNGKTCRVVFDDTFDRSMLRGGPLSGPYRLRQFHLHWGSSDDHGSEHTVDGVKYAAELHLVHWNPKYNTFGEALKQPDGIAVVGIFLKIGREKGEFQILLDALDKIKTKGKEAPFNHFDPSCLFPACRDYWTYHGSFTTPPCEECIVWLLLKEPMTVSSDQMAKLRSLFASAENEPPVPLVGNWRPPQPIKGRVVRASFK
[5]
  esterase activity with p-nitrophenyl acetate: 25.8 nmols/min/mg

B2: AtETHE1: Arabidopsis thaliana ETHE1 polypeptide, recombinant, purified from E. coli; mononuclear Fe(II) β-lactamase fold protein (protein)
chain: MKLLFRQLFENESSTFTYLLADVSHPDKPALLIDPVDKTVDRDLKLIDELGLKLIYAMNTHVHADHVTGTGLLKTKLPGVKSVISKASGSKADLFLEPGDKVSIGDIYLEVRATPGHTAGCVTYVTGEGADQPQPRMAFTGDAVLIRGCGRTDFQEGSSDQLYESVHSQIFTLPKDTLIYPAHDYKGFEVSTVGEEMQHNPRLTKDKETFKTIMSNLNLSYPKMIDVAVPANMVCGLQDVPSQAN
[6]
  activity against p-NPA: 2.02±0.46 nmols/min/mg of enzyme
[7]; Example 5, over-expressed purified AtETHE1
  enzymatic activity towards SLG: no enzymatic activity
[7]; as-isolated and after incubation with excess iron, SLG and other thioester derivatives
  hydrolysis of glutathione thioesters: did not hydrolyze any of the glutathione thioesters
